Results as given in ChEMBL document CHEMBL1201862, “PubChem BioAssay data set” (2004).
The source made the active and inactive calls.

How the values were obtained:
[1] = molecular target: Cysteine protease ATG4B (Homo sapiens, UniProt Q9Y4P1); assay type: functional;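 further: Fluorescence-based dose-response confirmation assay measuring inhibition of ATG4B activity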
[2] = molecular target: Phospholipase A2 (Homo sapiens, UniProt P04054); assay type: functional;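 further: confirmatory dose-response counterscreen on phospholipase A2, testing hits that came from an ultra-high-throughput screen for ATG4B inhibitors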
[3] = molecular target: T1, Aminopeptidase N (Plasmodium falciparum FcB1/Columbia, UniProt O96935); assay: malaria alanyl aminopeptidase activity blockers – biochemical, fluorogenic H-Leu-NHMec substrate, 1536-well (AID 1445); set-up: species or system Plasmodium falciparum 3D7, 3D7
T1 sequence (O96935 whole entry): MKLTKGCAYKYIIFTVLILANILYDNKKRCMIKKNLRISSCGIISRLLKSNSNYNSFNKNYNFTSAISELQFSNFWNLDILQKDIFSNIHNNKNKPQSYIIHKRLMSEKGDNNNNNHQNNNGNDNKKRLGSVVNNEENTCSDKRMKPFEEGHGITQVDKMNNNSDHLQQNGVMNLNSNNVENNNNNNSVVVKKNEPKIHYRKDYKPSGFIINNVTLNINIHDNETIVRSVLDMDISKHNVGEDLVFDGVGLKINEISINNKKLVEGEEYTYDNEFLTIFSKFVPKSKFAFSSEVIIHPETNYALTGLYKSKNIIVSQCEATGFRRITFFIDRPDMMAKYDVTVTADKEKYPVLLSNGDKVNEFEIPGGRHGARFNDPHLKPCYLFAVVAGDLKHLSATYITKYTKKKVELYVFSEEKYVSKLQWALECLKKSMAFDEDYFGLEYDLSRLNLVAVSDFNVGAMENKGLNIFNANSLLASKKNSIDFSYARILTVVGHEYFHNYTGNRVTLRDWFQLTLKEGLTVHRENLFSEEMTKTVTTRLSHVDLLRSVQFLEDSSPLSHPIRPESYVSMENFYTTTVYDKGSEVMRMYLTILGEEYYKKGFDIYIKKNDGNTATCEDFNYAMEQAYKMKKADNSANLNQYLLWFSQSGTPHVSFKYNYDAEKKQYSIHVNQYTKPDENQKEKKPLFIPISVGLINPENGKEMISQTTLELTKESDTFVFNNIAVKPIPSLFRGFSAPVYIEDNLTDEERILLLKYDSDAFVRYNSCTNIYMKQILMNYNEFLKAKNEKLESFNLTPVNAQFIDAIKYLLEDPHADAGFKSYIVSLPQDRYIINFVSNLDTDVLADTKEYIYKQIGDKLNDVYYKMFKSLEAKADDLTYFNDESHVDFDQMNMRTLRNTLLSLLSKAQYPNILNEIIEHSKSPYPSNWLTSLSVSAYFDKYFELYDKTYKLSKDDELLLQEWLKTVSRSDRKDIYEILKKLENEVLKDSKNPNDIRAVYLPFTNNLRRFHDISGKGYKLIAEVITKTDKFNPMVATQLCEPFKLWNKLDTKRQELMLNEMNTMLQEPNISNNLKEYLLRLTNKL

[4] = molecular target: FAD-linked sulfhydryl oxidase ALR (Homo sapiens, UniProt P55789); assay: ALR-catalysed DTT oxidation blockers – biochemical, H2O2 detection, luminescence, cherry-pick, dose response (AID 493248)
[5] = molecular target: T2, Sentrin-specific protease 6 (Homo sapiens, UniProt Q9GZR1); assay type: functional
T2 sequence (Q9GZR1 whole entry): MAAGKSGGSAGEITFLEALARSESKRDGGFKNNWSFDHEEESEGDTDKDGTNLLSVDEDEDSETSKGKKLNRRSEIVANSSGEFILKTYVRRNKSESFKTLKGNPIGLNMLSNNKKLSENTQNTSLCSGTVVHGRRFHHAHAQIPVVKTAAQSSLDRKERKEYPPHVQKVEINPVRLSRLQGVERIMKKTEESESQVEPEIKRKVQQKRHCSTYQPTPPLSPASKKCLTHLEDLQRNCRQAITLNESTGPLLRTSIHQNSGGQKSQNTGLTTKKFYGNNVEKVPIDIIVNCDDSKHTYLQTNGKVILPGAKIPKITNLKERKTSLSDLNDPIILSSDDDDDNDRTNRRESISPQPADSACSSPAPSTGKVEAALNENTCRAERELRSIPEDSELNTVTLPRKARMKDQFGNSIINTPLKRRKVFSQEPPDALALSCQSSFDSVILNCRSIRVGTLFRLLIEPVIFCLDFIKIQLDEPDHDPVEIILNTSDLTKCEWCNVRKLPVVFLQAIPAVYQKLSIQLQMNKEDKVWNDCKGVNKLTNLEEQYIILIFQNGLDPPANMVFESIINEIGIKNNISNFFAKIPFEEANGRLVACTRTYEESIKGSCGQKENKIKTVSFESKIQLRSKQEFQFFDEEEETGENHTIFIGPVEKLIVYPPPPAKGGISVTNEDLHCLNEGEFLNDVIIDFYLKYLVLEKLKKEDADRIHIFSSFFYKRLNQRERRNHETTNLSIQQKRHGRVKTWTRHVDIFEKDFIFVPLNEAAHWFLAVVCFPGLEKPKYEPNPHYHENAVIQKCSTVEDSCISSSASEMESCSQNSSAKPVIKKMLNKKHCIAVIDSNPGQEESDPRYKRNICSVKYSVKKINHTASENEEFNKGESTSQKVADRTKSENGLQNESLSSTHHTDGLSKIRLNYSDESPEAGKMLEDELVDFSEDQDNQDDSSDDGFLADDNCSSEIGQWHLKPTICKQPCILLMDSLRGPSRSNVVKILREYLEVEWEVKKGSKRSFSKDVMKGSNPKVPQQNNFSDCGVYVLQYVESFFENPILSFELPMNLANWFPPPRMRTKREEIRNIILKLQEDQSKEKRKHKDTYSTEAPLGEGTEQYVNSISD

[6] = molecular target: T3, Caspase-3 (Homo sapiens, UniProt P42574); assay type: functional
T3 sequence (P42574 whole entry): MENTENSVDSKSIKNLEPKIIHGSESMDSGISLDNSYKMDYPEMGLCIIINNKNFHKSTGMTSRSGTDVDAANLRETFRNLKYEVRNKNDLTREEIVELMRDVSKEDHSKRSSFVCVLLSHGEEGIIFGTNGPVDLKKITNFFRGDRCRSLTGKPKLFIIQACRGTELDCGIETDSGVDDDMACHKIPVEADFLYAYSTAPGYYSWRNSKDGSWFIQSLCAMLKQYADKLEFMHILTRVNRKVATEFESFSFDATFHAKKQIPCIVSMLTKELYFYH

[7] = molecular target: T4, Sentrin-specific protease 8 (Homo sapiens, UniProt Q96LD8); assay type: functional;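 further: luminescence read-out of SENP8 inhibition, dose-response confirmation following an ultra-high-throughput screen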
T4 sequence (Q96LD8 whole entry): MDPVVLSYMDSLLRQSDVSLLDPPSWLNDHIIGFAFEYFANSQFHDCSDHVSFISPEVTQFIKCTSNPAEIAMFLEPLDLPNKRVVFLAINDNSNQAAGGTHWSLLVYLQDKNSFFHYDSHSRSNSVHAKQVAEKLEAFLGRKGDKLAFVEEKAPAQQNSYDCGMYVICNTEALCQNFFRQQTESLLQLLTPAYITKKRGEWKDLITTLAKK

[8] = molecular target: T5, Sentrin-specific protease 7 (Homo sapiens, UniProt Q9BQF6); assay type: functional;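 further: Luminescence-based dose-response confirmation of ultra-high-throughput screening hits, measuring inhibition of SENP7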
T5 sequence (Q9BQF6 whole entry): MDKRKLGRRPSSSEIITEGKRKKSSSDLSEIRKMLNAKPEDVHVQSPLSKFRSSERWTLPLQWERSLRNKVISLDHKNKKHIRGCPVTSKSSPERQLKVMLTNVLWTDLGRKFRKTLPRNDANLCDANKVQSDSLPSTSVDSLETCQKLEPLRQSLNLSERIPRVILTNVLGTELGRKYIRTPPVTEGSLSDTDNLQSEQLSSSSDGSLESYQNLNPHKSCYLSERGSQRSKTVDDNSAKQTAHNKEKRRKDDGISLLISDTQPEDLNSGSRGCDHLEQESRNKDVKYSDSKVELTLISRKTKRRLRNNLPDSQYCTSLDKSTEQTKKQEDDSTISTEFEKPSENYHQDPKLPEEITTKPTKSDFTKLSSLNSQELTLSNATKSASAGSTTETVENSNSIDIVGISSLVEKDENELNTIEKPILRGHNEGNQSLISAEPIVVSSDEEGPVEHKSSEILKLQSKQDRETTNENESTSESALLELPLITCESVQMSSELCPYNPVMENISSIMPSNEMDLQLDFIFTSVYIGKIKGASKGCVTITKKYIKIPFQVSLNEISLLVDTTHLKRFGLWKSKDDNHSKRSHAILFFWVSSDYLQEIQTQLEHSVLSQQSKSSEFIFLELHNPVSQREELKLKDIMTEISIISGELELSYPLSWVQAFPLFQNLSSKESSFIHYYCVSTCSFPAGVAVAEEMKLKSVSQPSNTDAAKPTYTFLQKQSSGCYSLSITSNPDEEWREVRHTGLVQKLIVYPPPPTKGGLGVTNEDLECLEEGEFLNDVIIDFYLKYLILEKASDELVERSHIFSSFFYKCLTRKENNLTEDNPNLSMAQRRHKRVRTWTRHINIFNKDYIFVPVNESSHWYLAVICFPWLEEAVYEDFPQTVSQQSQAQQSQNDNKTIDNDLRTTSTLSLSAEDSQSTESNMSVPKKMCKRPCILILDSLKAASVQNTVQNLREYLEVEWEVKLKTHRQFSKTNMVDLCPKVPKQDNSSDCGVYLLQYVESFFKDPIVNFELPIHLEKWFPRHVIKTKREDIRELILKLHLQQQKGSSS

[9] = molecular target: T2, Sentrin-specific protease 6; assay: SAR Analysis of small molecule inhibitors of Sentrin-specific protease 6 (SENP6) using a Luminescent assay. [Related pubchem assays (depositor defined):AID2582, AID2599]; assay type: functional
[10] = molecular target: T4, Sentrin-specific protease 8; assay: inhibition of human SENP8 cleavage activity – biochemical, luminescence, SAR follow-up (AID 504501); assay type: functional
[11] = molecular target: T5, Sentrin-specific protease 7; assay: inhibition of human SENP7 cleavage activity – biochemical, luminescence, SAR follow-up (AID 504497); assay type: functional
[12] = molecular target: T3, Caspase-3; assay: SAR Analysis of small molecule inhibitors of Sentrin-specific proteases (SENPs) using a Caspase-3 Selectivity assay. [Related pubchem assays (depositor defined):AID2540, AID2599, AID434973, AID489001]; assay type: functional
[13] = molecular target: T6, Zinc finger protein mex-5 (Caenorhabditis elegans, UniProt Q9XUB2); assay: potency of MEX-5 RNA-binding blockers – biochemical, C. elegans, fluorescence polarization, dose response (AID 1960)
T6 sequence (Q9XUB2 whole entry): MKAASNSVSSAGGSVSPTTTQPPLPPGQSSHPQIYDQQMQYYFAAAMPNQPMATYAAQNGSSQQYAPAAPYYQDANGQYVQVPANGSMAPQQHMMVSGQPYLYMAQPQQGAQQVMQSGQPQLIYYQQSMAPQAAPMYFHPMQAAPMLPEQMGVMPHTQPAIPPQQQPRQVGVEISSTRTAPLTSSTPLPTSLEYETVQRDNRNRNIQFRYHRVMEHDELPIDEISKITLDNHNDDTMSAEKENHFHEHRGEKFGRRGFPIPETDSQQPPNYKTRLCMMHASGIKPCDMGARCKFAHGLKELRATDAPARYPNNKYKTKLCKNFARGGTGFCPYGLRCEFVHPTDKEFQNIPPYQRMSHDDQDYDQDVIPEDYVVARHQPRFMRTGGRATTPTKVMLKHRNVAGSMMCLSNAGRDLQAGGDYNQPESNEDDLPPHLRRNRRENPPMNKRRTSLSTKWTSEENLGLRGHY

[14] = molecular target: T7, Endoribonuclease toxin MazF (Escherichia coli K-12, UniProt P0AE70); assay: activation of MazEF endoribonuclease cleavage – biochemical, fluorescence, single-stranded RNA substrate, uHTS hits, dose response (AID 588481); assay type: functional
T7 sequence (P0AE70 whole entry): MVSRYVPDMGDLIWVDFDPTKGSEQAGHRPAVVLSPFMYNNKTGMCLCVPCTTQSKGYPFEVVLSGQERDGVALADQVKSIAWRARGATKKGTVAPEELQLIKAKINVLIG

[15] = molecular target: T8, RNA-binding protein pos-1 (Caenorhabditis elegans, UniProt G5EF15); assay: disruptors of C. elegans POS-1 RNA interaction – biochemical, fluorescence polarization, dose response (AID 1964);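 further: purified POS-1 fused to maltose binding protein made in E. coli; potency of compounds blocking POS-1 binding to fluorescent RNA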
T8 sequence (G5EF15 whole entry): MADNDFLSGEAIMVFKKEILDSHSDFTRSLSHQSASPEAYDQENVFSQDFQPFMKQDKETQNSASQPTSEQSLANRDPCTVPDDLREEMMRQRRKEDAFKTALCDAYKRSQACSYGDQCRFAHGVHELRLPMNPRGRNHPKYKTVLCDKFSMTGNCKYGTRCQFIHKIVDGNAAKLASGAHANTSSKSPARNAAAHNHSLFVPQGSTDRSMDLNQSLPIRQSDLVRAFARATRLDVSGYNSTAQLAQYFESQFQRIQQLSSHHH

[16] = molecular target: T7, Endoribonuclease toxin MazF; assay: substrate-only fluorescence increase artefacts – biochemical, single-stranded RNase substrate, counter-screen for MazEF activator project, dose response (AID 588502); assay type: functional
[17] = HEK-293T cell viability reduction – luminescence, B-cell screen hits, cytotoxicity control for BCR NF-kB inhibitor project, dose response (AID 489021); assay type: functional, cell-based;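 further: HEK-293T cells carrying an NF-kB luciferase reporter; cells exposed to compound for about 14 hours before viability readout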

Phospholipase A2, sequence (P04054 whole entry): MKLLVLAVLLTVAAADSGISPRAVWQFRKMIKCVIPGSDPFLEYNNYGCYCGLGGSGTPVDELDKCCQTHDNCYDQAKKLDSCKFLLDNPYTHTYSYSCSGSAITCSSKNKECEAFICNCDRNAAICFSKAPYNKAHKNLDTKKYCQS
FAD-linked sulfhydryl oxidase ALR, sequence (P55789 whole entry): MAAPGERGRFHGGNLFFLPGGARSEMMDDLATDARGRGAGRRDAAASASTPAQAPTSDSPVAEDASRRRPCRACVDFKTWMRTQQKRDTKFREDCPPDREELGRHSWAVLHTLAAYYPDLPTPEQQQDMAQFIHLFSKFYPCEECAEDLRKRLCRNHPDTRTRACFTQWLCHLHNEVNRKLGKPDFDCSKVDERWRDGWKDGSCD
Cysteine protease ATG4B, sequence (Q9Y4P1 whole entry): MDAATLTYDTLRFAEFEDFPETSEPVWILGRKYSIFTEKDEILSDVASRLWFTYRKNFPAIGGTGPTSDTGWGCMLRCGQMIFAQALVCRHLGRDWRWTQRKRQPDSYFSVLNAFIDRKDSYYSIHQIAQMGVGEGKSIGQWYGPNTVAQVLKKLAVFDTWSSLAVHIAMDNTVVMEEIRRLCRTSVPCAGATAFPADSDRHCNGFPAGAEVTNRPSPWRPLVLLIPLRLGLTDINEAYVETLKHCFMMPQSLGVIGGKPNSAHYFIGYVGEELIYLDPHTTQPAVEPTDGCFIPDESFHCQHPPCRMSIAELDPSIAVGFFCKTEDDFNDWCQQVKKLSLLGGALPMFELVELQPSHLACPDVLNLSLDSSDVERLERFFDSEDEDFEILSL

## COc1cc(/C=C/C(=O)O)cc(S(=O)(=O)Nc2cc(Cl)c(Cl)cc2Cl)c1OC
[1]
  IC50: 6.7 µM (active)
[2]
  IC50: 34.1 µM (inactive)
[3]
  IC50: 94.2 µM (active)

## C/C(=N/O)c1ccc2ccc3ccccc3c2c1
[4]
  AC50: 5.54 µM (active)
[5]
  IC50: 16.7 µM (active)
[6]
  IC50: 38 µM (active)
[7]
  IC50: 21.6 µM (active)
[8]
  IC50: 9.17 µM (active)

## O=[N+]([O-])c1ccc(/N=C/c2c[nH]c3ccccc23)cc1
[9]
  IC50: > 99 µM (inactive)
[10]
  IC50: > 99 µM (inactive)
[11]
  IC50: > 99 µM (inactive)
[12]
  IC50: > 99 µM (inactive)

## Cc1cccc(CN2C(=O)N/C(=C/c3ccc(C)s3)C2=O)c1
[13]
  EC50: > 300 µM (inconclusive)
[14]
  EC50: > 99 µM (inactive)
[15]
  EC50: 27.5 µM (active)
[16]
  EC50: 87.8 µM (inactive)

## COc1ccccc1/C=C1/SC(=S)N(CCC(=O)Nc2cccnc2)C1=O
[13]
  EC50: 37.6 µM (inconclusive)
[14]
  EC50: 52 µM (inactive)
[15]
  EC50: 69.2 µM (active)
[17]
  IC50: > 80 µM (inactive)
[16]
  EC50: > 99 µM (inactive)
